Reference: ChEMBL document CHEMBL1909046, “DrugMatrix in vitro pharmacology data”
pIC50, pKi: −log10 of the molar value.

Biological target: T1, Alpha-1A adrenergic receptor (Rattus norvegicus, UniProt P43140)
T1 sequence (P43140 whole entry): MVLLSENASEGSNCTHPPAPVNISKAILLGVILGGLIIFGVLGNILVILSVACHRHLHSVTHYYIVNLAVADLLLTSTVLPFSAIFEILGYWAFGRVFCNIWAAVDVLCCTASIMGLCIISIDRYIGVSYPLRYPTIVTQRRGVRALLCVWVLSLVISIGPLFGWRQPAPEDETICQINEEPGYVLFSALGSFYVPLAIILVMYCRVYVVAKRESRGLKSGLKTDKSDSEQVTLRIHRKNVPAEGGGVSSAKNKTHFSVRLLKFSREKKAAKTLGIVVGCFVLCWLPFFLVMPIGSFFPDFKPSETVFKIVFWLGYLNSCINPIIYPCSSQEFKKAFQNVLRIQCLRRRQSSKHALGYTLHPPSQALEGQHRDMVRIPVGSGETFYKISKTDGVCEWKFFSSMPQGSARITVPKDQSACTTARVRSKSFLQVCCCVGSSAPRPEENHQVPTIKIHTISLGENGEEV
Assay: DRUGMATRIX: Alpha-1A adrenergic receptor radioligand binding (ligand: prazosin)
Type: cell membranes, Wistar, Submaxillary gland, Membrane
Settings: Not Active = under 50% inhibition at 10 µM

Row | Compound | IC50
1 | Nc1nc2c(c(=O)[nH]1)N(C=O)C(CNc1ccc(C(=O)N[C@@H](CCC(=O)O)C(=O)O)cc1)CN2 (stereo partly specified) [LEUCOVORIN] | Not Active
2 | C[C@@H](O)[C@H]1C(=O)N2C(C(=O)O)=C(S[C@@H]3CN[C@H](C(=O)N(C)C)C3)[C@H](C)[C@H]12 [MEROPENEM] | Not Active
3 | CC[C@@H](CO)NC(=O)[C@@H]1C=C2c3cccc4c3c(cn4C)C[C@H]2N(C)C1 [METHYSERGIDE] | Not Active
4 | CCN(CC)CC#CCOC(=O)C(O)(c1ccccc1)C1CCCCC1 (stereo unspecified) [OXYBUTYNIN] | Not Active
5 | O=P(O)(O)C(O)(Cc1cccnc1)P(=O)(O)O [RISEDRONIC ACID] | Not Active
6 | CN(CCOc1ccc(CC2SC(=O)NC2=O)cc1)c1ccccn1 (stereo unspecified) [ROSIGLITAZONE] | Not Active

Same assay, conditions: Not Active = under 50% inhibition at 10 µM; read-out: IC50

Row | Compound | pIC50
7 | O=c1[nH]c2ccccc2n1CCCN1CCC(n2c(=O)[nH]c3cc(Cl)ccc32)CC1 [DOMPERIDONE] | 6.55
8 | OCCN1CCN(CCCN2c3ccccc3Sc3ccc(C(F)(F)F)cc32)CC1 [FLUPHENAZINE] | 7.62
9 | O=c1n(CCCN2CCN(c3cccc(Cl)c3)CC2)nc2ccccn12 [TRAZODONE] | 6.93

Same assay, conditions: Not Active = under 50% inhibition at 10 µM; read-out: Ki

Row | Compound | pKi
10 | O=c1[nH]c2ccccc2n1CCCN1CCC(n2c(=O)[nH]c3cc(Cl)ccc32)CC1 [DOMPERIDONE] | 6.94
11 | OCCN1CCN(CCCN2c3ccccc3Sc3ccc(C(F)(F)F)cc32)CC1 [FLUPHENAZINE] | 8.02
12 | O=c1n(CCCN2CCN(c3cccc(Cl)c3)CC2)nc2ccccn12 [TRAZODONE] | 7.33

System: not listed separately
Assay: DRUGMATRIX: Phosphodiesterase PDE3 enzyme inhibition (substrate: [3H]cAMP + cAMP)
Type: tissue-based, Homo sapiens
Settings: platelet; Not Active = under 50% inhibition at 10 µM

Row | Compound | IC50 | Ki
13 | Nc1nc2c(c(=O)[nH]1)N(C=O)C(CNc1ccc(C(=O)N[C@@H](CCC(=O)O)C(=O)O)cc1)CN2 (stereo partly specified) [LEUCOVORIN] | Not Active | Not Active
14 | C[C@@H](O)[C@H]1C(=O)N2C(C(=O)O)=C(S[C@@H]3CN[C@H](C(=O)N(C)C)C3)[C@H](C)[C@H]12 [MEROPENEM] | Not Active | Not Active
15 | O=P(O)(O)C(O)(Cc1cccnc1)P(=O)(O)O [RISEDRONIC ACID] | Not Active | Not Active
16 | CN(CCOc1ccc(CC2SC(=O)NC2=O)cc1)c1ccccn1 (stereo unspecified) [ROSIGLITAZONE] | Not Active | Not Active

Biological target: Substance-P receptor (Homo sapiens, UniProt P25103); also: in other assays of this panel Not Active means under 50% inhibition at 10 µM
Type: cell membranes, Membrane
Settings: cho

Chain of Substance-P receptor (P25103 whole entry): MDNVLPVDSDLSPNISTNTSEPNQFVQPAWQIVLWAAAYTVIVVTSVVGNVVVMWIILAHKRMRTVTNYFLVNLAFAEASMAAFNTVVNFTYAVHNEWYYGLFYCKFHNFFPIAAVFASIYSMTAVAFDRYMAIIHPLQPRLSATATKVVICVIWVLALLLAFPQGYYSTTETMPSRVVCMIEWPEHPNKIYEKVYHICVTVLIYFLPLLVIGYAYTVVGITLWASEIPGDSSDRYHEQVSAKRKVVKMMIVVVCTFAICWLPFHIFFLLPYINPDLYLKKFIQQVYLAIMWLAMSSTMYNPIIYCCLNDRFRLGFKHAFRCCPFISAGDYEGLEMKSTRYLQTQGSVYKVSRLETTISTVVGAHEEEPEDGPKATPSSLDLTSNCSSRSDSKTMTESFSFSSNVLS

Row | Compound | IC50 | Ki
17 | O=c1[nH]c2ccccc2n1CCCN1CCC(n2c(=O)[nH]c3cc(Cl)ccc32)CC1 [DOMPERIDONE] | Not Active | 
18 | OCCN1CCN(CCCN2c3ccccc3Sc3ccc(C(F)(F)F)cc32)CC1 [FLUPHENAZINE] | Not Active | 
19 | Nc1nc2c(c(=O)[nH]1)N(C=O)C(CNc1ccc(C(=O)N[C@@H](CCC(=O)O)C(=O)O)cc1)CN2 (stereo partly specified) [LEUCOVORIN] | Not Active | 
20 | C[C@@H](O)[C@H]1C(=O)N2C(C(=O)O)=C(S[C@@H]3CN[C@H](C(=O)N(C)C)C3)[C@H](C)[C@H]12 [MEROPENEM] | Not Active | 
21 | CC[C@@H](CO)NC(=O)[C@@H]1C=C2c3cccc4c3c(cn4C)C[C@H]2N(C)C1 [METHYSERGIDE] | Not Active | 
22 | CCN(CC)CC#CCOC(=O)C(O)(c1ccccc1)C1CCCCC1 (stereo unspecified) [OXYBUTYNIN] |  | Not Active
23 | O=P(O)(O)C(O)(Cc1cccnc1)P(=O)(O)O [RISEDRONIC ACID] | Not Active | 
24 | CN(CCOc1ccc(CC2SC(=O)NC2=O)cc1)c1ccccn1 (stereo unspecified) [ROSIGLITAZONE] | Not Active | 
25 | O=c1n(CCCN2CCN(c3cccc(Cl)c3)CC2)nc2ccccn12 [TRAZODONE] | Not Active | 

Biological target: T2, Calcitonin receptor (Homo sapiens, UniProt P30988); also: in other assays of this panel Not Active means under 50% inhibition at 10 µM
T2 sequence (P30988 whole entry): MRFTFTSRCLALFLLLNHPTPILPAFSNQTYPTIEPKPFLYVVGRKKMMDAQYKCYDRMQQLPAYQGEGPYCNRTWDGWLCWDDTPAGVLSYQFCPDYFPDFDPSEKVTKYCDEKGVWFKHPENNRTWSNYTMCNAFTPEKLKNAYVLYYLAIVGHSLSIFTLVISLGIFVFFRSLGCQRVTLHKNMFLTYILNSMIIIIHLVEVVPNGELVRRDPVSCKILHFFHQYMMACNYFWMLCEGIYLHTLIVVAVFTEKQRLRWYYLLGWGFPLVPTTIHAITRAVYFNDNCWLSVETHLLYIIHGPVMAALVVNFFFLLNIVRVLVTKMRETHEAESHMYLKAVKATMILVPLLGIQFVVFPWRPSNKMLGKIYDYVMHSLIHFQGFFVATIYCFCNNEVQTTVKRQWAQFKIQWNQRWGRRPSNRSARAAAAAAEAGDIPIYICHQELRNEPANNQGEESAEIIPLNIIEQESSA
Type: cell membranes, Membrane
Settings: t47d

Row | Compound | IC50
26 | O=c1[nH]c2ccccc2n1CCCN1CCC(n2c(=O)[nH]c3cc(Cl)ccc32)CC1 [DOMPERIDONE] | Not Active
27 | OCCN1CCN(CCCN2c3ccccc3Sc3ccc(C(F)(F)F)cc32)CC1 [FLUPHENAZINE] | Not Active
28 | Nc1nc2c(c(=O)[nH]1)N(C=O)C(CNc1ccc(C(=O)N[C@@H](CCC(=O)O)C(=O)O)cc1)CN2 (stereo partly specified) [LEUCOVORIN] | Not Active
29 | C[C@@H](O)[C@H]1C(=O)N2C(C(=O)O)=C(S[C@@H]3CN[C@H](C(=O)N(C)C)C3)[C@H](C)[C@H]12 [MEROPENEM] | Not Active
30 | CC[C@@H](CO)NC(=O)[C@@H]1C=C2c3cccc4c3c(cn4C)C[C@H]2N(C)C1 [METHYSERGIDE] | Not Active
31 | CCN(CC)CC#CCOC(=O)C(O)(c1ccccc1)C1CCCCC1 (stereo unspecified) [OXYBUTYNIN] | Not Active
32 | O=P(O)(O)C(O)(Cc1cccnc1)P(=O)(O)O [RISEDRONIC ACID] | Not Active
33 | CN(CCOc1ccc(CC2SC(=O)NC2=O)cc1)c1ccccn1 (stereo unspecified) [ROSIGLITAZONE] | Not Active
34 | O=c1n(CCCN2CCN(c3cccc(Cl)c3)CC2)nc2ccccn12 [TRAZODONE] | Not Active

Biological target: T3, Neutrophil elastase (Homo sapiens, UniProt P08246);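 also: inhibition of neutrophil elastase enzyme activity, measured with a p-nitroanilide-linked peptide substrate; in other assays of this panel Not Active means under 50% inhibition at 10 µM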
T3 sequence (P08246 whole entry): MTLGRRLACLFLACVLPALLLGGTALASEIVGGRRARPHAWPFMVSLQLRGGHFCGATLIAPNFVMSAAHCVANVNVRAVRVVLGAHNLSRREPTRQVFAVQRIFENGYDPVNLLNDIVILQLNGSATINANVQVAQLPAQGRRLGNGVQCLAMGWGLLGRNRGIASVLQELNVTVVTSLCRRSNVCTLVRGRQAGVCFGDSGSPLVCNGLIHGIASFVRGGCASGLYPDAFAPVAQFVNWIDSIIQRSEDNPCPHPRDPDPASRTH
Type: tissue-based
Settings: not given

Row | Compound | IC50
35 | O=c1[nH]c2ccccc2n1CCCN1CCC(n2c(=O)[nH]c3cc(Cl)ccc32)CC1 [DOMPERIDONE] | Not Active
36 | OCCN1CCN(CCCN2c3ccccc3Sc3ccc(C(F)(F)F)cc32)CC1 [FLUPHENAZINE] | Not Active
37 | Nc1nc2c(c(=O)[nH]1)N(C=O)C(CNc1ccc(C(=O)N[C@@H](CCC(=O)O)C(=O)O)cc1)CN2 (stereo partly specified) [LEUCOVORIN] | Not Active
38 | C[C@@H](O)[C@H]1C(=O)N2C(C(=O)O)=C(S[C@@H]3CN[C@H](C(=O)N(C)C)C3)[C@H](C)[C@H]12 [MEROPENEM] | Not Active
39 | CC[C@@H](CO)NC(=O)[C@@H]1C=C2c3cccc4c3c(cn4C)C[C@H]2N(C)C1 [METHYSERGIDE] | Not Active
40 | CCN(CC)CC#CCOC(=O)C(O)(c1ccccc1)C1CCCCC1 (stereo unspecified) [OXYBUTYNIN] | Not Active
41 | O=P(O)(O)C(O)(Cc1cccnc1)P(=O)(O)O [RISEDRONIC ACID] | Not Active
42 | CN(CCOc1ccc(CC2SC(=O)NC2=O)cc1)c1ccccn1 (stereo unspecified) [ROSIGLITAZONE] | Not Active
43 | O=c1n(CCCN2CCN(c3cccc(Cl)c3)CC2)nc2ccccn12 [TRAZODONE] | Not Active

Biological target: T4, Angiotensin-converting enzyme (Oryctolagus cuniculus, UniProt P12822);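 also: enzymatic inhibition of angiotensin-converting enzyme measured with FAPGG as the substrate; in other assays of this panel Not Active means under 50% inhibition at 10 µM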
T4 sequence (P12822 whole entry): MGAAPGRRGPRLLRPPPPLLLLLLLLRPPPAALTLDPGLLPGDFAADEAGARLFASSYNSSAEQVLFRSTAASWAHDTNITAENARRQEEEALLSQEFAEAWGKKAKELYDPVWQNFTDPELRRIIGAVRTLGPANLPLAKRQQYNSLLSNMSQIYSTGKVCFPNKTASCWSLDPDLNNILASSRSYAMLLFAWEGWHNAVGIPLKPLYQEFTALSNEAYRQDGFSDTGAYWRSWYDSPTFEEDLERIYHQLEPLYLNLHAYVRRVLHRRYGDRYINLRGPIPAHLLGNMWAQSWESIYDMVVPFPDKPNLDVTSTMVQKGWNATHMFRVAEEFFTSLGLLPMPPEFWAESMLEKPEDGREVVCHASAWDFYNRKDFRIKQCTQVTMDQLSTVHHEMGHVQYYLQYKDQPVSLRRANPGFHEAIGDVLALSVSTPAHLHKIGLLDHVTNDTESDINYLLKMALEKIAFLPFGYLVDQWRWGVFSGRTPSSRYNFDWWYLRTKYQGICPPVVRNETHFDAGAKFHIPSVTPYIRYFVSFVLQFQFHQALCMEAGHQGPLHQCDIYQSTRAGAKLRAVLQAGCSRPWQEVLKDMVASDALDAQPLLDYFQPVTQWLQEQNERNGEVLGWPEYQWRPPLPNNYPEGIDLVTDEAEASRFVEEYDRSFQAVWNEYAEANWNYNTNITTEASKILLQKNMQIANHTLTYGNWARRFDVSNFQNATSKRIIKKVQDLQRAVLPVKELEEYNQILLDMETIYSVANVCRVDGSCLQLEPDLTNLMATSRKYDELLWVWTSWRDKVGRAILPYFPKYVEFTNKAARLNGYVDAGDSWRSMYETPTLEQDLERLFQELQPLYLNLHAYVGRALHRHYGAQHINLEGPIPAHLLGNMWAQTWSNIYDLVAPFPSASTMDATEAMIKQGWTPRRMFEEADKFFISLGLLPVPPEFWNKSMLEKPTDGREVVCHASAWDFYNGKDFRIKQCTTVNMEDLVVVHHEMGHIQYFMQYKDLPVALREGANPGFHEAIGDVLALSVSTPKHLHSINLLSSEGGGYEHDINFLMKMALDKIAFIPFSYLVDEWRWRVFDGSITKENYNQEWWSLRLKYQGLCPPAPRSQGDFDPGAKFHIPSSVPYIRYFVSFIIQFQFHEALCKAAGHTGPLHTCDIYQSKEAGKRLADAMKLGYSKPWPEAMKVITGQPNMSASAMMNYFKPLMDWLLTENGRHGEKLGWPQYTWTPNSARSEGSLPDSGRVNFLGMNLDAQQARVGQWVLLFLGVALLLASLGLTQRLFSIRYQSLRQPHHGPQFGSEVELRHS
Type: tissue-based, Lung
Settings: not given

Row | Compound | IC50
44 | O=c1[nH]c2ccccc2n1CCCN1CCC(n2c(=O)[nH]c3cc(Cl)ccc32)CC1 [DOMPERIDONE] | Not Active
45 | OCCN1CCN(CCCN2c3ccccc3Sc3ccc(C(F)(F)F)cc32)CC1 [FLUPHENAZINE] | Not Active
46 | Nc1nc2c(c(=O)[nH]1)N(C=O)C(CNc1ccc(C(=O)N[C@@H](CCC(=O)O)C(=O)O)cc1)CN2 (stereo partly specified) [LEUCOVORIN] | Not Active
47 | C[C@@H](O)[C@H]1C(=O)N2C(C(=O)O)=C(S[C@@H]3CN[C@H](C(=O)N(C)C)C3)[C@H](C)[C@H]12 [MEROPENEM] | Not Active
48 | CC[C@@H](CO)NC(=O)[C@@H]1C=C2c3cccc4c3c(cn4C)C[C@H]2N(C)C1 [METHYSERGIDE] | Not Active
49 | CCN(CC)CC#CCOC(=O)C(O)(c1ccccc1)C1CCCCC1 (stereo unspecified) [OXYBUTYNIN] | Not Active
50 | O=P(O)(O)C(O)(Cc1cccnc1)P(=O)(O)O [RISEDRONIC ACID] | Not Active
51 | CN(CCOc1ccc(CC2SC(=O)NC2=O)cc1)c1ccccn1 (stereo unspecified) [ROSIGLITAZONE] | Not Active
52 | O=c1n(CCCN2CCN(c3cccc(Cl)c3)CC2)nc2ccccn12 [TRAZODONE] | Not Active
